Like-named read-outs stand apart in the source and are kept apart here.
Assays:
CYP2C9 = target: T1, CYP2C9 (Homo sapiens, UniProt P11712); experiment: Reversible inhibition of recombinant CYP2C9; type: in vitro ADME; details: recombinant enzyme, 100–0.4 µM, data not shown
T1 construct: purchased BD Gentest (Woburn, MA, USA)
Procedure: (§1) The assay conditions for determining reversible and time dependent inhibition of CYPs were similar as reported earlier. Test samples or positive controls were serially diluted in a solution (100 µL) of cofactors mix, control protein (0.05 mg of protein/mL) and Glucose-6-phosphate dehydrogenase (G6PDH) to achieve six concentrations (100–0.4 µM). To account for any inherent fluorescence, the plates were incubated at 37 °C for 10 min and fluorescence readings were taken. Enzyme substrate mixture (100 µL) was added to initiate the reaction and the plates were further incubated for 15 (CYP1A2), 30 (CYP3A4, 2C9 and 2C19) or 45 min (CYP2D6). The reaction was stopped by the addition of 75 µL of acetonitrile/0.5M Tris base (80:20). Fluorescence was measured on Spectramax M5 plate reader (Molecular Devices, Sunnyvale, CA, USA) at specified excitation and emission wavelengths for each substrate. IC50 values (co-incubation assay) were obtained from concentration-response curves generated by plotting log concentration versus % control.

CYP2C19 = target: T2, CYP2C19 (Homo sapiens, UniProt P33261); experiment: Reversible inhibition of recombinant CYP2C19; type: in vitro ADME; details: recombinant enzyme, 100–0.4 µM, data not shown
T2 construct: purchased BD Gentest (Woburn, MA, USA)
Procedure: as §1

CYP1A2 = target: T3, CYP1A2 (Homo sapiens, UniProt P05177); experiment: Inhibition of recombinant CYP1A2; type: in vitro ADME; details: recombinant enzyme
T3 construct: purchased BD Gentest (Woburn, MA, USA)
Procedure: (§2) The reaction was terminated and fluorescence was measured as described above. IC50 values (pre-incubation assay) were obtained as above. The IC50 shift fold was calculated as the ratio of IC50 (co-incubation)/IC50 (pre-incubation).

P-gp = target: T4, P-gp (Homo sapiens, UniProt P08183); experiment: P-gp inhibition, calcein-AM uptake in hMDR1-MDCK-II and MDCK-II cells; type: cell-based; details: calcein-AM 1 µM, mean ± SD of three experiments
T4 construct: host or cells: hMDR1-MDCK-II (canine kidney cells transfected with human MDR1)
Procedure: MDCK-II and hMDR1-MDCK-II cells were seeded in 96-well plates at 70,000 cells/well in 200 µL of culture medium. The medium was changed at 24 h after seeding and the assay was performed 48 h later. Test samples and positive control at various concentrations (100–0.4 µM) were added to the cells in 50 µL of transport buffer and incubated at 37 °C for 10 min. […] The % increase in calcein-AM uptake was calculated as described earlier [18].

[1] = humans, cited from earlier work
CYP3A4 [2] = target: T5, CYP3A4 (Homo sapiens, UniProt P08684); experiment: Reversible (co-incubation) and time dependent (pre-incubation) inhibition of recombinant CYP3A4, fluorescent substrate BFC; type: in vitro ADME; set-up: purchased BD Gentest (Woburn, MA, USA); details: based on IC50 shift ratio criterion > 1.5
Procedure: as §2

CYP2D6 [3] = target: T6, CYP2D6 (Homo sapiens, UniProt P10635); experiment: Reversible (co-incubation) and time dependent (pre-incubation) inhibition of recombinant CYP2D6, fluorescent substrate AMMC; type: in vitro ADME; set-up: purchased BD Gentest (Woburn, MA, USA); details: for IC50: recombinant enzyme, mean ± SD of three experiments
CYP3A4 [4] = target: T5, CYP3A4; type: in vitro ADME; set-up: The reaction was initiated by the addition of HLM (0.6 mg/mL protein); tissue Corning Life Sciences (Cambridge, MA, USA); host or cells: pooled human liver microsomes, 25 donors, mixed gender; details: Lineweaver-Burk plot, testosterone metabolism
Procedure: (§3) The incubation mixture (250 µL) consisted of NADPH regeneration system (NADP^+, glucose-6-phosphate, and G6PDH) in 0.1M potassium phosphate buffer (pH 7.4). […] The reaction was initiated by the addition of HLM (0.6 mg/mL protein). After further incubation of 30 min (for CYP3A4) or 20 min (for CYP2D6) at 37 °C, reaction was terminated by addition of ice-cold acetonitrile containing 5 μL corticosterone (internal standard for CYP3A4, 20 µM) or 5 μL niflumic acid (internal standard for CYP2D6, 1 µM). The mixture was centrifuged at 10,000 rpm for 5 min and the supernatant (200 μL) was transferred into vials for HPLC (CYP3A4) or UHPLC (CYP2D6) analysis. IC50 values were obtained from concentration-response curves generated by plotting log concentration versus % of control by using GraphPad Prism 6 (La Jolla, CA, USA).
(§4) The type of inhibition (competitive or non-competitive) was predicted by Lineweaver-Burk Plot (velocity^−1 vs. substrate^−1). Apparent inhibition constant (Ki) was calculated from the x-intercept of the Dixon plot (slope of the primary plot vs. inhibitor concentration), which was fitted by liner regression using GraphPad Prism 6 (La Jolla, CA, USA).

CYP2D6 [5] = target: T6, CYP2D6; experiment: Reversible inhibition and enzyme kinetics of CYP2D6 in pooled HLM (dextromethorphan to dextrorphan); type: in vitro ADME; set-up: The reaction was initiated by the addition of HLM (0.6 mg/mL protein); tissue Corning Life Sciences (Cambridge, MA, USA); host or cells: pooled human liver microsomes, 25 donors, mixed gender; details: for Type of inhibition of CYP2D6 in HLM: Lineweaver-Burk plot
Procedure: as §3, §4
The quantification of dextromethorphan, dextrorphan and niflumic acid (internal standard) was done by using Agilent LC-quadrupole time-of-flight (QToF) (model 6230)-mass spectrometry (Agilent Technologies, Palo Alto, CA, USA). The UHPLC system consisted of a binary pump, autosampler, degasser, and a column compartment. The mass detector was equipped with an electron spray ionization interface, which was connected to Agilent MassHunter Work Station (B.05.00). Dextromethorphan and dextrorphan were analyzed using an Agilent Zorbax SB-C8 RRHD column (100 mm × 2.1 mm I.D., 1.8 µm). A column temperature of 35 °C and sample temperature of 15 °C were maintained during analysis. The mobile phase consisted of water (A) and Acetonitrile (B), both containing 0.1% formic acid, which were applied in the following linear gradient elution: 0 min, 80%A: 20%B in next 10 min to 30%A: 70%B and in next 2 min to 100% B, at a flow rate of 0.2 mL/min. Separation was followed by a 2 min washing procedure with 100% B and re-equilibration period of 3.0 min. The total run time for analysis was 10 min. The injection volume was 2 µL. […] The LOD and LOQ of dextromethorph and dextrorphan, were 10 ng/mL and 5 ng/mL, respectively.

T6 sequence (P10635 whole entry): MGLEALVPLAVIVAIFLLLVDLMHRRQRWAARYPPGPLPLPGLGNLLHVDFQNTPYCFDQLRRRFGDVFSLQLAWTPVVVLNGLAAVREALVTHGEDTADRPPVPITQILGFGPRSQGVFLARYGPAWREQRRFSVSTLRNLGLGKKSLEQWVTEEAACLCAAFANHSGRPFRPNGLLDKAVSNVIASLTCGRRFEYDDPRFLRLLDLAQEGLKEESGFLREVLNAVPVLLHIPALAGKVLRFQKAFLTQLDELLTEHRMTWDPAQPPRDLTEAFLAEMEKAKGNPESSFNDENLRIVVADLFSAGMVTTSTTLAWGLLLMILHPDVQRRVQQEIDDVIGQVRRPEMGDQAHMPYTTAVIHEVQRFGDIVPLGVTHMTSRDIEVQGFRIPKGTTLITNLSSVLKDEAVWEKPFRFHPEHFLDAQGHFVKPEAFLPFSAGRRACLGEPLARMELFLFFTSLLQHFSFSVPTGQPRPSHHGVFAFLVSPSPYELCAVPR
T5 sequence (P08684 whole entry): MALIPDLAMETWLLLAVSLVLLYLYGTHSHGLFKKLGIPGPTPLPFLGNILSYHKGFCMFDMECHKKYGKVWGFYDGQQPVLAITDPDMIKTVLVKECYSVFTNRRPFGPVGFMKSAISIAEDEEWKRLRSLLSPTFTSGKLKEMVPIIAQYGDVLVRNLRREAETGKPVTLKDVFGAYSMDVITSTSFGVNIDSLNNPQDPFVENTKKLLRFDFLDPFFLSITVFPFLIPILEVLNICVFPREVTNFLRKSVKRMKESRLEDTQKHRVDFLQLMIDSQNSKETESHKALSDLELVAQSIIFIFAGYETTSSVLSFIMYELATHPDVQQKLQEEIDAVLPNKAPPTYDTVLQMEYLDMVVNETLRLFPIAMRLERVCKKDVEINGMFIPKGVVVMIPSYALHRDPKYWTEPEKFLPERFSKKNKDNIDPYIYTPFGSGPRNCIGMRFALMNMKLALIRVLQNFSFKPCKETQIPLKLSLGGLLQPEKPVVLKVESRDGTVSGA
T2 sequence (P33261 whole entry): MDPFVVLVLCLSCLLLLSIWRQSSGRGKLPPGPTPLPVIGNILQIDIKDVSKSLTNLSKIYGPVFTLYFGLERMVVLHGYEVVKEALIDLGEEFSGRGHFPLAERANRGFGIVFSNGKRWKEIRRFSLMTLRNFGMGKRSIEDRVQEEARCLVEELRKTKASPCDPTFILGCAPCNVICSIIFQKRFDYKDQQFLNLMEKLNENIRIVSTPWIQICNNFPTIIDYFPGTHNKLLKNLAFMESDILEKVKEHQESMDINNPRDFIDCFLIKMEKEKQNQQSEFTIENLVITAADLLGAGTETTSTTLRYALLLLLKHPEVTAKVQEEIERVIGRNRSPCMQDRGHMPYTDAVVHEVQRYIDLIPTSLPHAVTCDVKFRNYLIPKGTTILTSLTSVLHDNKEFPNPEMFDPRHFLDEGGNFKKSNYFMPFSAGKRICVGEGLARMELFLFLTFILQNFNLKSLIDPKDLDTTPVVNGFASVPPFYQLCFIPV
T1 sequence (P11712 whole entry): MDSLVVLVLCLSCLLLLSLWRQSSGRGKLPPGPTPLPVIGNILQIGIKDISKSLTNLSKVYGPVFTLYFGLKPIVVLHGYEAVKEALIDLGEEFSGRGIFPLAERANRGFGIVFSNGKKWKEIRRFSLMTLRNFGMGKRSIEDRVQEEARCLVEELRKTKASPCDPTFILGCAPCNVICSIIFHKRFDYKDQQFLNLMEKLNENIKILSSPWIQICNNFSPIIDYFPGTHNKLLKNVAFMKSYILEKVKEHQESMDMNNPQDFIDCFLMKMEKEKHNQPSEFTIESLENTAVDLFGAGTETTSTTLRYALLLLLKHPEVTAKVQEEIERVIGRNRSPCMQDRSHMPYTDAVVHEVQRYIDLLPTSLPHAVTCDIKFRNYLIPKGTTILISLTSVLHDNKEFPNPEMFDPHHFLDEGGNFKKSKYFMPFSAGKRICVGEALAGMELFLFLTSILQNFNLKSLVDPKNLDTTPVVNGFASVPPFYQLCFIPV
T3 sequence (P05177 whole entry): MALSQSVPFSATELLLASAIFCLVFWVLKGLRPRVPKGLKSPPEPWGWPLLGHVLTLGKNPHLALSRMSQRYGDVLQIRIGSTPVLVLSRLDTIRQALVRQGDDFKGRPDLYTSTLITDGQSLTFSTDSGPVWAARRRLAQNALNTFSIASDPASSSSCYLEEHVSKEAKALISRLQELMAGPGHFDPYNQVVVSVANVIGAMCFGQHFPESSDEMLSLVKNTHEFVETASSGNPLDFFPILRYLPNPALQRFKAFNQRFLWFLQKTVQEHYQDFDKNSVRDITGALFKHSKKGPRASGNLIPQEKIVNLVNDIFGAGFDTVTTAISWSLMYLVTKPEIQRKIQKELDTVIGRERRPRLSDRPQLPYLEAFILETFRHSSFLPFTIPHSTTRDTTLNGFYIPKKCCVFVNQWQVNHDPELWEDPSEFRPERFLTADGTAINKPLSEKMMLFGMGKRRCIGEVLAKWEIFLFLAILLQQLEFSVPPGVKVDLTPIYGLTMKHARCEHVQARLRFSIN
T4 sequence (P08183 whole entry): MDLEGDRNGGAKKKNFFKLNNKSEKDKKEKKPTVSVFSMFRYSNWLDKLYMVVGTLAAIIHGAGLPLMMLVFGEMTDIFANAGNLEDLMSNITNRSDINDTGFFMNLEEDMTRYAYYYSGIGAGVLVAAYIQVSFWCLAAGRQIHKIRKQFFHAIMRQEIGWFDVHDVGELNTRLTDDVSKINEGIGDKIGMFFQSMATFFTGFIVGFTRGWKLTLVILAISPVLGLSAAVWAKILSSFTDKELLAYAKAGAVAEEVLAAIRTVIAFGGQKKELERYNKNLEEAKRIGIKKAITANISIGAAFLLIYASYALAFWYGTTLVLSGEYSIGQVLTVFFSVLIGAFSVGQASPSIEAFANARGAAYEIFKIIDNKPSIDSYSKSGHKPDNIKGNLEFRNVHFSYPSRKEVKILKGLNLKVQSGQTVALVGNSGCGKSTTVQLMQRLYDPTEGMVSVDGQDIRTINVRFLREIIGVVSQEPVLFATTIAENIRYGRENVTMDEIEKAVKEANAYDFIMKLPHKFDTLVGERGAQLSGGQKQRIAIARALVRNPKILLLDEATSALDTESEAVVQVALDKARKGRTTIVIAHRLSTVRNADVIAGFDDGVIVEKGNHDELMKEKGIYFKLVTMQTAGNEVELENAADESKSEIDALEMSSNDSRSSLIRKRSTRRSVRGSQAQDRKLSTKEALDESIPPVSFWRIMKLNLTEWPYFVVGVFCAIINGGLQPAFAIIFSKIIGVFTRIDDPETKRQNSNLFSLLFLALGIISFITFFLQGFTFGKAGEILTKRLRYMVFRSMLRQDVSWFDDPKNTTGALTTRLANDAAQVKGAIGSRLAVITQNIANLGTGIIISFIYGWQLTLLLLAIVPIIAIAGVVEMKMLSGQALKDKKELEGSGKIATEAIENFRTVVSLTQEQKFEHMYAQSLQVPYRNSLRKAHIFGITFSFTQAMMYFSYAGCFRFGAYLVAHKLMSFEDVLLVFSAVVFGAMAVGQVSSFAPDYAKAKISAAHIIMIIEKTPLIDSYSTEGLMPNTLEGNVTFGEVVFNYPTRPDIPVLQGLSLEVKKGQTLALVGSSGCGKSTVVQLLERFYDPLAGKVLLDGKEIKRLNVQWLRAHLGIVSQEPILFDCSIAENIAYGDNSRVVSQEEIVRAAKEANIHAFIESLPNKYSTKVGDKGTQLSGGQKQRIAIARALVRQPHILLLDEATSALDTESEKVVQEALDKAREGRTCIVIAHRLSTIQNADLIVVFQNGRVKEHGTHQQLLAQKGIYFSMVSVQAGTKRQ

## CCOC(=O)C1=C[C@]2(CC)CCCN3CCc4c(n1c1ccccc41)[C@@H]32 [Vinpocetine, ethyl apovincaminate]
CYP2C9
  Inhibition of CYP2C9: no activity
CYP2C9; listed as vinpocetine
  Inhibition of CYP2C9: No inhibition
CYP2C19
  Inhibition of CYP2C19: no activity
CYP2C19; listed as vinpocetine
  Inhibition of CYP2C19: No inhibition
CYP1A2
  Inhibition of CYP1A2: no activity
P-gp
  EC50: 8 µM
[1]; oral
  Maximum plasma concentration (Cmax): 60 ng/mL
[1]
  Oral bioavailability: 6%
CYP3A4 [2]
  Time dependent inhibition (TDI) of CYP3A4: no TDI
CYP2D6 [3]; based on IC50 shift ratio criterion > 1.5
  Time dependent inhibition (TDI) of CYP2D6: no TDI
CYP2D6 [3]; 30 min pre-incubation (TDI assay), read-out: CYP2D6 (recombinant) IC50 Pre-incubation
  IC50: 37 ± 1.6 µM
CYP2D6 [3]; co-incubation (reversible inhibition), read-out: CYP2D6 (recombinant) IC50 Co-incubation
  IC50: 6.5 ± 1.1 µM
CYP3A4 [4]
  Type of inhibition of CYP3A4 in HLM: competitive inhibition
CYP3A4 [4]; listed as vinpocetine
  Type of inhibition of CYP3A4 in HLM: competitive
CYP2D6 [5]; dextromethorphan metabolism
  Type of inhibition of CYP2D6 in HLM: non-competitive inhibition
CYP2D6 [5]; dextromethorphan metabolism, listed as vinpocetine
  Type of inhibition of CYP2D6 in HLM: competitive
CYP2D6 [5]; human, pooled human liver microsomes, pH 7.4, probe dextromethorphan (to dextrorphan), pooled HLM, dextromethorphan as probe substrate
  IC50 at 20 min: 19 µM
CYP2D6 [5]; pooled HLM, dextromethorphan metabolism, Dixon plot
  Ki: 26 µM

Reference: publication PMC5533163 (Medicines, 2015)
